{"source": "patent US20150291547A1", "about": "“SMALL MOLECULES FOR EXTENDING THE WELL BEING OF CELLS AND METHODS OF USE THEREOF” (NANYANG POLYTECHNIC, priority 2011, published 2015)", "key": {"[1]": {"system": "hTERT expression (hTERT promoter)", "assay": "HepG2-phTERT-SEAP reporter assay (SEAP activity as measure of hTERT expression)", "type": "cell-based, human", "conditions": "for increase in hTERT expression: 16 hours; for average increase in hTERT expression: 20 μg/ml, 16 hours incubation, HepG2-hTERT reporter cell line, n=5 (FIG. 1)", "method": "NPL which consists of a total of 480 different pure natural product compounds.\n(§1) “SEAP” stands for secreted alkaline phosphatase enzyme. SEAP was used as a reporter system to monitor the transcriptional activity of hTERT. Here, about 10,000 cells per well were grown in 96-well plates and incubated at 37° C. for 22 hours. Varying types and amounts of natural compounds were added and cells were incubated for another 16 hours. Culture media were collected and heated at 65° C. for 10 mins to inactivate heat labile phosphatases. An equal amount of SEAP buffer (2M diethanolamine, 1 mM MgCl2, and 20 mM L-homoarginine), was added to the media and p-nitrophenyl phosphate was added to a final concentration of 12 mM. Absorbance at 405 nm was taken, and the percentage change in absorbance was calculated.\nAn increase in SEAP activity detected via the utilization of a substrate, translates to an increase in hTERT expression.\nCell lines suitable for use in the assay were prepared from ATTC No. HB-8065 Hep G2 (Hepatocellular carcinoma, human). The Hep G2 cell line was isolated from a liver biopsy of a person with a well differentiated hepatocellular carcinoma. These cells are epithelial in morphology. These cells secrete a variety of major plasma proteins e.g., alpha-fetoprotein (alpha fetoprotein); albumin; alpha2 macroglobulin (alpha-2-macroglobulin); alpha1 antitrypsin (alpha-1-antitrypsin); transferrin; alpha1 antichymotrypsin; (alpha-1-antichymotrypsin); haptoglobin; ceruloplasmin; plasminogen; complement (C4); C3 activator; fibrinogen; alpha1 acid glycoprotein (alpha-1 acid glycoprotein); alpha2 HS glycoprotein (alpha-2-HS-glycoprotein); beta lipoprotein (beta-lipoprotein); retinol binding protein (retinol-binding protein). The cells are also responsive to stimulation with human growth hormone. HepG2 cells and its derivatives are commonly used as a model system for studies of liver metabolism and toxicity of xenobiotics, the detection of cytoprotective, anti (environmental and dietary) genotoxic and cogenotoxic agents, understanding hepatocarcinogenesis, and for drug targeting studies. HepG2 cells are also employed in trials with bio-artificial liver devices.\n(§2) One of the plasmids contains the 5′ upstream hTERT promoter region followed by the reporter gene, the SEAP gene, while the other plasmid contains the CMV promoter region controlling the expression of the SEAP gene.\n(§3) Each plasmid was then individually transfected into HepG2 cells and stable cells lines were established by selection on G418 (1 mg/ml). Stable clones of from each plasmid transfected cell line was established and each clone was propagated and preserved under liquid nitrogen for long term storage prior to use\n(§4) The newly established HepG2-pTERT-SEAP and HepG2-pCMV-SEAP stable cell lines were then used for screening for inhibitors or activators of human telomerase expression.\nAn increase in SEAP activity indicates an increase in hTERT expression and a decrease in SEAP activity indicates a decrease in hTERT expression.\nHepG2-phTERT-SEAP cells were grown for 22 hours in M199 medium supplemented with 10% FBS. The three compounds, 7E (P1), 8H(P1) and 11E(P2) (20 μg/ml) specified above were added and incubated for another 16 hours. After 16 hours, SEAP assay was conducted in accordance to the protocol described by Huang et al. (2003)."}, "[2]": {"system": "hTERT promoter relative to CMV promoter", "assay": "Specificity check: hTERT promoter relative to CMV promoter driven SEAP in HepG2 cells", "type": "cell-based, human", "conditions": "for Average phTERT/pCMV ratio: 20 μg/ml, 16 hours, ± SE, n = 3; for specificity in activating hTERT expression: judged from average phTERT/pCMV ratio", "method": "as §1, §2, §3, §4\nHepG2-pCMV-SEAP serves as a positive control to ensure that SEAP is always secreted by cells harbouring this plasmid. It also serves as a specificity control as any small molecules that stimulate or inhibit only telomerase expression identified using the HepG2-pTERT-SEAP cells screening should show little to no increase in SEAP activity.\nHepG2-phTERT-SEAP cells were grown for 22 hours in M199 medium supplemented with 10% FBS. The three compounds (20 μg/ml) specified above were then added and incubated for another 16 hours. After 16 hours, SEAP assay was conducted in accordance to the protocol described by Huang et al. (2003). Concurrently, HepG2-pCMV-SEAP cells were also subjected to the compounds and results were also collected. The results obtained were as shown in Table 1 below which indicate the change in hTERT expression from n=3 independent experiments."}, "[3]": {"conditions": "1.25ug/ml, above untreated cells"}, "[4]": {"conditions": "20 ug/ml, vs 1% DMSO control wells"}, "[5]": {"conditions": "100 ug/ml, vs 1% DMSO control wells"}}}
{"molecule": "O=c1cc(-c2ccc(O)c(O)c2)oc2cc(O[C@@H]3O[C@H](CO)[C@@H](O)[C@H](O)[C@H]3O)cc(O)c12", "note": "[7E, Plate 1, 2-(3,4-dihydroxyphenyl)-5-hydroxy-7-[3,4,5-trihydroxy-6-(hydroxymethyl)(2H-3,4,5,6-tetrahydropyran-2-yloxy)]chromen-4-one]", "values": [{"measurement": "increase in hTERT expression", "setting": "[1]; [3]", "result": 12.3, "unit": "%"}, {"measurement": "average increase in hTERT expression", "setting": "[1]", "result": 29.42, "unit": "%"}, {"measurement": "increase in hTERT expression", "setting": "[1]; [4]", "result": 34.7, "unit": "%"}, {"measurement": "increase in hTERT expression", "setting": "[1]; [5]", "result": 167.0, "unit": "%"}, {"measurement": "Average phTERT/pCMV ratio", "setting": "[2]", "result": "1.08 ± 0.04"}, {"measurement": "specificity in activating hTERT expression", "setting": "[2]", "result": "only mildly specific"}]}
{"molecule": "COc1cc2ccc(=O)oc2c(O)c1OCC=C(C)C", "note": "[8H, Plate 1, 8-hydroxy-6-methoxy-7-(3-methylbut-2-enyloxy) chromen-2-one]", "values": [{"measurement": "increase in hTERT expression", "setting": "[1]; [3]", "result": 8.1, "unit": "%"}, {"measurement": "average increase in hTERT expression", "setting": "[1]", "result": 49.76, "unit": "%"}, {"measurement": "increase in hTERT expression", "setting": "[1]; [4]", "result": 39.5, "unit": "%"}, {"measurement": "increase in hTERT expression", "setting": "[1]; [5]", "result": 139.5, "unit": "%"}, {"measurement": "Average phTERT/pCMV ratio", "setting": "[2]", "result": "2.16 ± 0.14"}, {"measurement": "specificity in activating hTERT expression", "setting": "[2]", "result": "highly specific"}]}
{"molecule": "COc1cc2ccc(=O)oc2cc1O", "note": "[11E, Plate 2, 7-hydroxy-6-methoxychromen-2-one]", "values": [{"measurement": "increase in hTERT expression", "setting": "[1]; [3]", "result": 4.3, "unit": "%"}, {"measurement": "average increase in hTERT expression", "setting": "[1]", "result": 57.99, "unit": "%"}, {"measurement": "increase in hTERT expression", "setting": "[1]; [4]", "result": 54.2, "unit": "%"}, {"measurement": "increase in hTERT expression", "setting": "[1]; [5]", "result": 225.8, "unit": "%"}, {"measurement": "Average phTERT/pCMV ratio", "setting": "[2]", "result": "2.01 ± 0.01"}, {"measurement": "specificity in activating hTERT expression", "setting": "[2]", "result": "highly specific"}]}
{"molecule": "Cc1ccc(C(=O)Nc2ccc(S(=O)(=O)O)c3cc(S(=O)(=O)O)cc(S(=O)(=O)O)c23)cc1NC(=O)c1cccc(NC(=O)Nc2cccc(C(=O)Nc3cc(C(=O)Nc4ccc(S(=O)(=O)O)c5cc(S(=O)(=O)O)cc(S(=O)(=O)O)c45)ccc3C)c2)c1", "note": "[Suramin, reference compound]", "values": [{"measurement": "Average phTERT/pCMV ratio", "setting": "[2]", "result": "1.16 ± 0.11"}]}
